In ChEMBL document CHEMBL4152357, “Efflux pump inhibition by 11H-pyrido[2,1-b]quinazolin-11-one analogues in mycobacteria” (Bioorg Med Chem, 2018):
Converted amounts (≈) assume the structure as drawn. The source made the active and inactive calls. No cut-off for these calls is given here.

Tests used:
[1] = tested on: Mycolicibacterium smegmatis; assay: Growth inhibition of Mycobacterium smegmatis MC2 155 ATCC 700084 after 72 hrs by MTT assay; format: organism-based
[2] = target: T1, Multidrug efflux pump LfrA (Mycobacterium smegmatis (strain ATCC 700084 / mc(2)155)) (UniProt A0R5K5); assay: Inhibition of LfrA in Mycobacterium smegmatis MC2 155 ATCC 700084 assessed as decrease in norfloxacin MIC at 25 ug/ml after 72 hrs by MTT assay relative to control; conditions: Mycolicibacterium smegmatis MC2 155
T1 sequence (whole entry): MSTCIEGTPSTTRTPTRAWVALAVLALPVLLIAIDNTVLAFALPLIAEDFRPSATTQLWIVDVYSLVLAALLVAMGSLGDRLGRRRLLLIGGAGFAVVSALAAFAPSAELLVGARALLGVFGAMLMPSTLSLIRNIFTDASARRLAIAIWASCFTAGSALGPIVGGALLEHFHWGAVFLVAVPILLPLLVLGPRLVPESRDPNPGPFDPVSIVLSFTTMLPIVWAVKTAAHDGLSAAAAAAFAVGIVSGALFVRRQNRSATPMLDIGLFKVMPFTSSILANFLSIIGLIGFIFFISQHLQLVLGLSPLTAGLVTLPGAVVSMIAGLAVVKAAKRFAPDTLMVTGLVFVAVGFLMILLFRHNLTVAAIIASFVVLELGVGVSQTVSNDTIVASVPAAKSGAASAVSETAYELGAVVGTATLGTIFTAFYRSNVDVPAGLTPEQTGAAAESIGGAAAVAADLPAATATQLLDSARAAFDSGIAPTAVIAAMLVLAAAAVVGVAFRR

[3] = target: T1, Multidrug efflux pump LfrA (Mycobacterium smegmatis (strain ATCC 700084 / mc(2)155)); assay: Inhibition of LfrA in Mycobacterium smegmatis MC2 155 ATCC 700084 assessed as decrease in EtBr MIC at 16 ug/ml after 72 hrs by MTT assay relative to control; conditions: Mycolicibacterium smegmatis MC2 155
[4] = target: T1, Multidrug efflux pump LfrA (Mycobacterium smegmatis (strain ATCC 700084 / mc(2)155)); assay: Inhibition of LfrA in Mycobacterium smegmatis MC2 155 ATCC 700084 assessed as decrease in norfloxacin MIC at 0.0004 ug/ml after 72 hrs by MTT assay relative to control; conditions: Mycolicibacterium smegmatis MC2 155
[5] = target: T1, Multidrug efflux pump LfrA (Mycobacterium smegmatis (strain ATCC 700084 / mc(2)155)); assay: Inhibition of LfrA in Mycobacterium smegmatis MC2 155 ATCC 700084 assessed as increase in EtBr accumulation at 12.5 ug/ml measured every 5 mins for 35 mins by fluorometric analysis; conditions: Mycolicibacterium smegmatis MC2 155
[6] = target: T1, Multidrug efflux pump LfrA (Mycobacterium smegmatis (strain ATCC 700084 / mc(2)155)); assay: Inhibition of LfrA in Mycobacterium smegmatis MC2 155 ATCC 700084 assessed as increase in norfloxacin accumulation at 12.5 ug/ml measured every 5 mins for 35 mins by fluorometric analysis; conditions: Mycolicibacterium smegmatis MC2 155
[7] = target: T1, Multidrug efflux pump LfrA (Mycobacterium smegmatis (strain ATCC 700084 / mc(2)155)); assay: Inhibition of LfrA in Mycobacterium smegmatis MC2 155 ATCC 700084 assessed as decrease in EtBr MIC at 0.78 ug/ml after 72 hrs by MTT assay relative to control; conditions: Mycolicibacterium smegmatis MC2 155
[8] = target: T1, Multidrug efflux pump LfrA (Mycobacterium smegmatis (strain ATCC 700084 / mc(2)155)); assay: Inhibition of LfrA in Mycobacterium smegmatis MC2 155 ATCC 700084 assessed as decrease in EtBr MIC at 100 ug/ml after 72 hrs by MTT assay relative to control; conditions: Mycolicibacterium smegmatis MC2 155
[9] = target: T1, Multidrug efflux pump LfrA (Mycobacterium smegmatis (strain ATCC 700084 / mc(2)155)); assay: Inhibition of LfrA in Mycobacterium smegmatis MC2 155 ATCC 700084 assessed as decrease in norfloxacin MIC at 12.5 ug/ml after 72 hrs by MTT assay relative to control; conditions: Mycolicibacterium smegmatis MC2 155
[10] = target: T1, Multidrug efflux pump LfrA (Mycobacterium smegmatis (strain ATCC 700084 / mc(2)155)); assay: Inhibition of LfrA in Mycobacterium smegmatis MC2 155 ATCC 700084 assessed as potentiation of EtBr-induced bactericidal activity at 100 ug/ml after 24 hrs; conditions: Mycolicibacterium smegmatis MC2 155
CC-1 = assay: Cytotoxicity against rat CC1 cells assessed as decrease in cell survival at 200 ug/ml after 24 hrs by Alamar blue reduction assay relative to control; format: cell-based; conditions: cc-1, 24 h
[11] = Cytotoxicity against rat CC1 cells assessed as cell survival at 100 ug/ml after 24 hrs by Alamar blue reduction assay relative to control; format: cell-based, CC-1; conditions: read-out: Survival
[12] = Cytotoxicity against rat CC1 cells assessed as cell survival at 50 ug/ml after 24 hrs by Alamar blue reduction assay relative to control; format: cell-based, CC-1; conditions: read-out: Survival
[13] = target: T1, Multidrug efflux pump LfrA (Mycobacterium smegmatis (strain ATCC 700084 / mc(2)155)); assay: Inhibition of LfrA in Mycobacterium smegmatis MC2 155 ATCC 700084 assessed as increase in EtBr accumulation at 25 ug/ml measured every 5 mins for 35 mins by fluorometric analysis; conditions: Mycolicibacterium smegmatis MC2 155
[14] = target: T1, Multidrug efflux pump LfrA (Mycobacterium smegmatis (strain ATCC 700084 / mc(2)155)); assay: Inhibition of LfrA in Mycobacterium smegmatis MC2 155 ATCC 700084 assessed as increase in EtBr accumulation at 50 ug/ml measured every 5 mins for 35 mins by fluorometric analysis; conditions: Mycolicibacterium smegmatis MC2 155
[15] = target: T1, Multidrug efflux pump LfrA (Mycobacterium smegmatis (strain ATCC 700084 / mc(2)155)); assay: Inhibition of LfrA in Mycobacterium smegmatis MC2 155 ATCC 700084 assessed as decrease in norfloxacin MIC at 100 ug/ml after 72 hrs by MTT assay relative to control; conditions: Mycolicibacterium smegmatis MC2 155
[16] = target: T1, Multidrug efflux pump LfrA (Mycobacterium smegmatis (strain ATCC 700084 / mc(2)155)); assay: Inhibition of LfrA in Mycobacterium smegmatis MC2 155 ATCC 700084 assessed as potentiation of norfloxacin-induced bactericidal activity at 100 ug/ml after 48 hrs; conditions: Mycolicibacterium smegmatis MC2 155
[17] = target: T1, Multidrug efflux pump LfrA (Mycobacterium smegmatis (strain ATCC 700084 / mc(2)155)); assay: Inhibition of LfrA in Mycobacterium smegmatis MC2 155 ATCC 700084 assessed as increase in norfloxacin accumulation at 25 ug/ml measured every 5 mins for 35 mins by fluorometric analysis; conditions: Mycolicibacterium smegmatis MC2 155
[18] = target: T1, Multidrug efflux pump LfrA (Mycobacterium smegmatis (strain ATCC 700084 / mc(2)155)); assay: Inhibition of LfrA in Mycobacterium smegmatis MC2 155 ATCC 700084 assessed as potentiation of norfloxacin-induced bactericidal activity at 25 ug/ml after 24 to 48 hrs; conditions: Mycolicibacterium smegmatis MC2 155
[19] = target: T1, Multidrug efflux pump LfrA (Mycobacterium smegmatis (strain ATCC 700084 / mc(2)155)); assay: Inhibition of LfrA in Mycobacterium smegmatis MC2 155 ATCC 700084 assessed as potentiation of EtBr-induced bactericidal activity at 100 ug/ml after 48 hrs; conditions: Mycolicibacterium smegmatis MC2 155

SMILES	MIC [1] [µg/mL]	fold change (FC) [2]	fractional inhibitory concentration index (FICI) [2]	fold change (FC) [8]	fractional inhibitory concentration index (FICI) [8]	inhibition [10]	Activity (CC-1) [%]	viability at 24 h, 100 ug/ml [11] [%]	viability at 24 h, 50 ug/ml [12] [%]	inhibition [13]	Activity [14] [FU]	Activity [17] [FU]	also measured
COc1ccc(CCN(C)CCCC(C#N)(c2ccc(OC)c(OC)c2)C(C)C)cc1OC (stereo not drawn) [VERAPAMIL]	300 (≈ 660 µM)	–	–	–	–	–	–	–	–	–	–	–	–
Cc1cccn2c(=O)c3ccc(Br)cc3nc12	200 (≈ 692 µM)	4	0.37	–	–	–	–	–	–	–	–	–	–
N#CC(C#N)=NNc1cccc(Cl)c1 [CARBONYL CYANIDE M-CHLOROPHENYLHYDRAZONE]	25 (≈ 122 µM)	–	–	–	–	–	–	–	–	–	–	–	fold change (FC) [3]: 2; fractional inhibitory concentration index (FICI) [3]: 0.5; fold change (FC) [4]: 32; fractional inhibitory concentration index (FICI) [4]: 0.03; inhibition [5]: Active; Activity [6]: 1000 FU
Cc1ccn2c(=O)c3cc(Br)ccc3nc2c1	200 (≈ 692 µM)	4	0.37	–	–	–	–	–	–	–	–	–	fold change (FC) [7]: 2; fractional inhibitory concentration index (FICI) [7]: 0.3
Cc1ccn2c(=O)c3cccc(F)c3nc2c1	200 (≈ 876 µM)	–	–	8	0.62	Active	> 50	43	96	Active	> 150	–	fold change (FC) [9]: 4; fractional inhibitory concentration index (FICI) [9]: 0.3
O=c1c2ccc(Cl)cc2nc2ccccn12	200 (≈ 867 µM)	–	–	8	0.62	Active	> 50	70	80	Active	248	18000	fold change (FC) [15]: 8; fractional inhibitory concentration index (FICI) [15]: 0.62; Activity (deltalog10CFU/ml) [16]: 4
Cc1cccn2c(=O)c3ccccc3nc12	200 (≈ 951 µM)	–	–	8	0.62	Active	> 50	81	45	Active	250	–	fold change (FC) [9]: 4; fractional inhibitory concentration index (FICI) [9]: 0.3
O=c1c2cccc(Cl)c2nc2ccccn12	200 (≈ 867 µM)	8	0.25	–	–	–	> 50	99	100	–	–	3000	Activity (deltalog10CFU/ml) [18]: > 3
O=c1c2ccccc2nc2ccccn12	200 (≈ 1020 µM)	8	0.25	8	0.62	Active	> 50	70	86	inactive	< 150	2000	Activity (deltalog10CFU/ml) [18]: > 3; inhibition [19]: Active
